Test results published in patent US20030040095A1, “Method for the production of pharmaceutically active recombinant proteins” (priority 2001, published 2003).

Legend:
Format in all cases: cell-based
[1] = test system: recombinant CHO cell line; experiment: tc-uPA activity in culture of recombinant CHO cells, chromogenic assay (Pefachrome UK); conditions: for Activity of tc-uPA: 1 L Spinner-flask culture, 37° C., 5 days; for Activity on the chromogenic substrate: average of four fermentations
Description: (§1) At first, the optimal conditions related to butyrate concentration and temperature in a laboratory scale were determined. Preliminary experiments aimed at optimizing the Na-butyrate concentration were performed in a 1 L culture of the recombinant CHO cell line (1×10^6 cells/ml), in order to achieve the best tc-uPA (HMW and LMW) production and the higher cell viability after 5 days of cultivation in spinner-flasks.
(§2) In table 1 are reported the cell viability and the uPA yield after 5 days cultivation in 1 L Spinner-flask culture at 37° C. and at different Na-butyrate concentrations. uPA activity was followed by a chromogenic assay using the Pefachrome® UK (54-46) (Pentapharm, LTD, Basel, Switzerland) as chromogenic substrate, according to the manufacturer's instructions; the cell viability was followed every day and measured microscopically after Trypan blue dye-exclusion method, as described in Doyle et al. A, Griffiths, J B and Newell, D G (Eds.) (1994), in “Cell & Tissue Culture: Laboratory Procedures”. John Wiley & Sons. New York.
(§3) A second set of experiments was performed at 1.2 mM butyrate, in a 5-days fermentation to determine the optimal temperature in a 2 L culture (1.5-2×10^6 cells/ml) of the recombinant CHO cell line in bioreactor.
When the cellular density reached values of about 2×10^6 living cells/ml, the cells were separated from the exhausted medium by tangential filtration (or centrifugation). Cells were then resuspended in the bioreactor in the same original volume of fresh medium CHOMaster® with the addition of sodium butyrate to achieve a final concentration of 1.2 mM.
The production of active u-PA (tc-UPA HMW and LMW) was monitored by a chromogenic test on a specific substrate, Pefachrome® UK. A progressive increase of the activity was observed up to maximal values as high as 7000 IU/ml, achieved after 4-5 days of fermentation. At this point the cells were harvested and subsequently discarded and the exhausted culture medium, containing tc-uPA, was further processed for purification.

[2] = test system: recombinant CHO cell line; experiment: Cell viability of recombinant CHO culture, Trypan blue dye-exclusion
Description: as §1, §2, §3

[3] = test system: recombinant CHO cell line; experiment: tc-uPA activity in culture of recombinant CHO cells, chromogenic assay (Pefachrome UK); conditions: 1.2 mM butyrate, 32° C., after 12 days, 2 L bioreactor
[4] = test system: recombinant CHO cell line; experiment: Cell viability of recombinant CHO culture, Trypan blue dye-exclusion; conditions: 1.2 mM butyrate, 32° C., after 12 days, 2 L bioreactor

CCCC(=O)[O-].[Na+] [Na-Butyrate, sodium butyrate]
Activity of tc-uPA ([1]; 0.6 mM Na-Butyrate): 526 IU/ml | Activity of tc-uPA ([1]; 1.2 mM Na-Butyrate): 959 IU/ml | Activity of tc-uPA (5 days cultivation) ([1]; 1.2 mM Na-Butyrate, 32° C., 2 L bioreactor): 800 IU/ml | Activity of tc-uPA (5 days cultivation) ([1]; 1.2 mM Na-Butyrate, 34° C., 2 L bioreactor): 5043 IU/ml | Activity of tc-uPA (5 days cultivation) ([1]; 1.2 mM Na-Butyrate, 37° C. (control), 2 L bioreactor): 1830 IU/ml | maximal activity on Pefachrome UK ([1]; 1.2 mM sodium butyrate, 34° C., after 4-5 days of fermentation, 2 L bioreactor): ≤ 7000 IU/ml | Activity of tc-uPA ([1]; 2.5 mM Na-Butyrate): 361 IU/ml | Activity on the chromogenic substrate ([1]; 1 day after addition of 1.2 mM Na-butyrate, 34° C., 2 L bioreactor): 155 ± 23% | Activity on the chromogenic substrate ([1]; 2 days after addition of 1.2 mM Na-butyrate, 34° C., 2 L bioreactor): 662 ± 32% | Activity on the chromogenic substrate ([1]; 3 days after addition of 1.2 mM Na-butyrate, 34° C., 2 L bioreactor): 1995 ± 13% | Activity on the chromogenic substrate ([1]; 4 days after addition of 1.2 mM Na-butyrate, 34° C., 2 L bioreactor): 3170 ± 23% | Activity on the chromogenic substrate ([1]; 5 days after addition of 1.2 mM Na-butyrate, 34° C., 2 L bioreactor): 5043 ± 13% | Cell viability ([2]; 0.6 mM Na-Butyrate, 1 L Spinner-flask culture, 37° C., 5 days): 83% | Cell viability ([2]; 1.2 mM Na-Butyrate, 1 L Spinner-flask culture, 37° C., 5 days): 76% | Cell viability ([2]; 1.2 mM Na-Butyrate, 32° C., 5 days, 2 L bioreactor): 84% | Cell viability ([2]; 1.2 mM Na-Butyrate, 34° C., 5 days, 2 L bioreactor): 67% | Cell viability ([2]; 1.2 mM Na-Butyrate, 37° C. (control), 5 days, 2 L bioreactor): 53% | Cell viability ([2]; 2.5 mM Na-Butyrate, 1 L Spinner-flask culture, 37° C., 5 days): 56% | Cell viability ([2]; 1 day after addition of 1.2 mM Na-butyrate, 34° C., 2 L bioreactor, average of four fermentations): 87 ± 6% | Cell viability ([2]; 2 days after addition of 1.2 mM Na-butyrate, 34° C., 2 L bioreactor, average of four fermentations): 81 ± 12% | Cell viability ([2]; 3 days after addition of 1.2 mM Na-butyrate, 34° C., 2 L bioreactor, average of four fermentations): 78 ± 15% | Cell viability ([2]; 4 days after addition of 1.2 mM Na-butyrate, 34° C., 2 L bioreactor, average of four fermentations): 72 ± 14% | Cell viability ([2]; 5 days after addition of 1.2 mM Na-butyrate, 34° C., 2 L bioreactor, average of four fermentations): 67 ± 10% | activity (tc-uPA) [3]: 3961 U/ml | Cell viability [4]: 63%
